In ChEMBL document CHEMBL3988442, “University of Dundee, Small-Polar-MMV Screening Library” (2021):

How the values were obtained:
Schistosoma mansoni = test: High throughput screening of compounds against Schistosoma mansoni motility; type: functional; parameters: dose or concentration left out as unconfirmed
ClpP1P2 = ClpP1P2 (Mycobacterium tuberculosis (strain ATCC 25618 / H37Rv), UniProt P9WPC3+P9WPC5); test: in vitro assay to detect presence of AMC directly proportional to the activity of ClpP1P2. GHDDI collaboration.; type: functional
Sequence of ClpP1P2 (P9WPC5 whole entry): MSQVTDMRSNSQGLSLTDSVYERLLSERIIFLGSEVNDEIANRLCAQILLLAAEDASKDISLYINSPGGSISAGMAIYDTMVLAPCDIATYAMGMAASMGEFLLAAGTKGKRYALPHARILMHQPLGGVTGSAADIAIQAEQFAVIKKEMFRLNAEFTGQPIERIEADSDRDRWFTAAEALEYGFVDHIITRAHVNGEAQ
Sequence of ClpP1P2 (P9WPC3 whole entry): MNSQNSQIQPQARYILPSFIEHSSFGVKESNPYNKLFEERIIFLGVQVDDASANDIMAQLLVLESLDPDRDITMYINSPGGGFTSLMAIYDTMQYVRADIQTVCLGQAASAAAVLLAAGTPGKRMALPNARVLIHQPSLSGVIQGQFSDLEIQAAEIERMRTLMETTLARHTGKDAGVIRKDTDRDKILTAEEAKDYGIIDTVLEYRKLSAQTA

[1] = microbe, parasite or virus in culture; conditions: Mycobacterium tuberculosis, 72 h, read-out: pIC50 (converted)
[2] = microbe, parasite or virus in culture; conditions: Mycobacterium tuberculosis, 96 h, read-out: pIC50 (converted)
Plasmodium falciparum = test: Calibr Malaria Delayed Death Assay SOP; type: functional, organism-based; conditions: for IC50: Plasmodium falciparum

Compound	Percent Effect (Schistosoma mansoni) [%]	also measured
Cc1cc(N(C)Cc2noc(C)n2)n2nc(C)c(C)c2n1	-16.19	
Cc1cc(C)n(CC(=O)N2CCC(c3nc(C)no3)CC2)n1	-18.96	
CC(C)c1nnc2n1CC(CNCc1ccncc1)CC2 (configuration not stated)	-34.29	
COC(=O)CS(=O)(=O)CCC(=O)N1CCCC1c1ccsc1 (configuration not stated)	-22.42	
COc1ccc(NC(=O)N2CCN(c3ncccn3)CC2)cn1	-75.2	
CC(C)c1cnc(CNc2c(F)cccc2-n2cccn2)o1	20.62	
COc1cccc(C(C)Nc2ncnc3c2NC(=O)CN3)c1 (configuration not stated)		IC50 (ClpP1P2): > 100 µM; IC50 [1]: > 50.1 µM; IC50 [2]: > 50.1 µM
COc1ccc(CNCCc2cc(F)cc3c2OCOC3)cc1O	-21.14	
O=C(Nc1ccnc(OC2CCOC2)c1)C1CCC1 (configuration not stated)	-37.1	
Cc1ccn(-c2ccccc2NCc2ccccn2)n1	-12.81	
NC(=O)CN1CCCN(C(=O)c2ccn(-c3ccccc3)n2)CC1	-17.53	
CC(=O)N1CCC(C(=O)NCCN2CCC(C)CC2)CC1	14.05	
CCc1nnc2n1CCN(C(=O)c1csc(-c3cnn(C)c3)n1)C2	-4.866	
CC(C)(C(=O)NCC1CC1)c1ccccc1F	9.48	
CCn1c(N)nc2cc(C(=O)NCCc3ccccc3C)cnc21	-46.13	
Cc1ccsc1[C@@H]1CCN(C(=O)c2cc3ccccc3[nH]2)C[C@H]1O	28.15	
N#Cc1c(F)cccc1N1CCC(NS(=O)(=O)c2cccs2)CC1	28.82	
Cn1cnnc1S(=O)(=O)C1CCN(S(=O)(=O)c2c(Cl)cccc2Cl)CC1	-2.116	
O=S1(=O)CCCN1Cc1coc(-c2cccs2)n1	-11.58	
O=C(c1cc(Cl)c2c(c1)OCO2)N1CCN(c2nccs2)CC1	-51.67	
Cc1n[nH]c(C)c1C1CCCN1C(=O)NCC(=O)NC(C)(C)C (configuration not stated)	-7.96	
c1cc2c(cc1C1CCCN1Cc1nnnn1C1CC1)OCCO2 (configuration not stated)	5.096	
O=C(NCCn1ccc(-c2ccccn2)n1)c1ccncc1	-46.65	
Cc1nc(CN2CCc3cncnc3C2)oc1C	-26.27	
CCCN(CCO)C(=O)C1CCC(=O)N(CCc2ccc(Cl)cc2)C1 (configuration not stated)	-16.9	
CC(C)=CCN1C(=O)[C@H]2CC[C@@H]1CN(Cc1cccnc1N)C2	-5.593	

Compound	Percent Effect (Schistosoma mansoni) [%]	also measured
CCC(=O)N1CCC(c2nnc(Cn3cncn3)n2C2CC2)CC1	-42.58	
COc1cccc(NC(=O)N(CCO)Cc2ccsc2)c1	-62.57	
CC(NC(=O)N(C)Cc1ccncc1)c1nncn1C (configuration not stated)	-16.24	
Cc1ccc(C(=O)N2CCCC2c2nnc3n2CCCCC3)o1 (configuration not stated)	-40.92	
CCc1cc(N[C@H]2CC[C@H](O)CC2)n2nc(C)c(C)c2n1	12.6	
Cc1ccc(CC(=O)N2CCOC(c3nc(C(C)(C)C)n[nH]3)C2)cn1 (configuration not stated)	7.474	
COc1ccc(F)cc1S(=O)(=O)NCC(c1cccn1C)N(C)C (configuration not stated)	-13.44	
COc1ccc(Br)c(C(=O)NCC2CCN(S(=O)(=O)C3CC3)CC2)c1	-3.942	
Cn1c(C(F)(F)F)nn(CCNC(=O)CSCc2ccccc2)c1=O	-2.069	
CCCC(C)(C)NC(=O)c1ccc(CC2CC(=O)NC2=O)cc1 (configuration not stated)	-6.374	
CCCOc1cc(C)ccc1NC(=O)NCCC(=O)N(C)C	-17.12	
COc1cc(C)nc(N2CCN(Cc3nccn3C)CC2)n1	-41.68	
COCC(NC(=O)c1cnn(C)c1)c1cccc(C(F)(F)F)c1 (configuration not stated)	-48.05	
CC(C)c1nn(CC(=O)N2CCCCC2)c(=O)c2c1cnn2C(C)(C)C	-88.07	
Cc1nc(C2CCCN(C(=O)c3sccc3C3CC3)C2)no1 (configuration not stated)	-33.52	
COc1ncccc1C(=O)NCC1Cc2ccccc2O1 (configuration not stated)	-86.67	
Cc1nn(C)c(N(C)C)c1CNCC(O)COc1ccc(F)cc1 (configuration not stated)	-41.92	
O=C(NCCn1ccc(-c2ccncc2)n1)c1ccncc1	-35.45	
Cc1cccc(CCC(=O)N2CCOCC2c2c(C)n[nH]c2C)c1 (configuration not stated)	-56.4	
CC(C#N)CSc1ccccc1NCC(=O)NCc1ccccc1 (configuration not stated)	-63.78	
CC(COc1ccccc1)NCc1nc(-c2cccnc2)no1 (configuration not stated)	-35.35	
COc1ccc(CNC(=O)NCC2CCOC2)c(C(F)(F)F)c1 (configuration not stated)	-32.81	
CC(C)(C)C(=O)NCCC(=O)NC(C)(C)c1ccc2c(c1)OCCO2	-18.95	
CN1CCC(c2nnc(CN3CCC(O)CC3)n2C)CC1	-3.365	
Cn1ccnc1-c1cccc(NC(=O)NCCN2CCOCC2)c1	-15.26	
Cc1nn(C)c(C)c1NC(=O)CN1CCCC1c1noc(C2CC2)n1 (configuration not stated)	-50.94	

Compound	Percent Effect (Schistosoma mansoni) [%]	also measured
O=C(CCc1ccccc1)Nc1ncccc1OC(F)F	-1.295	
Cc1cc(C(=O)N2CCC(c3nccn3Cc3ccncc3)CC2)no1	-48.3	
CCCNC(=O)N1CCC(Oc2cc(C)ccc2F)(C(=O)O)CC1	27.97	
CCCNC(=O)CNC(=O)CCc1ccccc1Br	24.36	
O=C(CCn1cnnc1)N1CCCC(c2ncc[nH]2)C1 (configuration not stated)	-28.96	
O=C(CCc1cc2n(n1)CCCN(Cc1ccccc1F)C2)NC1CC1	-12.36	
O=C(Nc1nc2c(s1)CN(S(=O)(=O)C1CC1)CC2)c1c(F)cccc1F	15.1	
COC(=O)CNC(=O)c1cn(-c2ccccn2)c(=O)c2ccccc12		IC50 (ClpP1P2): > 100 µM; IC50 [1]: > 50.1 µM; IC50 [2]: > 50.1 µM
COCCN1CCC(CNC(=O)C2(c3ccc(Br)cc3)CCCC2)C1 (configuration not stated)		pIC50 (Plasmodium falciparum): 6.366; IC50 (Plasmodium falciparum): 0.541 µM; IC50 (ClpP1P2): > 100 µM
CCn1cncc1CN1CCN(CC2(c3ccc(C)cc3)CC2)CC1.Cl		pIC50 (Plasmodium falciparum): 6; IC50 (Plasmodium falciparum): 1.11 µM; IC50 (ClpP1P2): > 100 µM
CC(C)n1ccc(-c2cc(C(=O)NC3CC3)c3ccccn23)n1		IC50 (ClpP1P2): > 100 µM; IC50 [1]: 16.5 µM; IC50 [2]: 14 µM
OCC1(CC2CCCCO2)CCN(c2cnc3ccccc3n2)CC1 (configuration not stated)		IC50 (ClpP1P2): > 100 µM; IC50 [1]: 13.4 µM; IC50 [2]: 10.7 µM
Cc1cc(C)c2cc(CNC3CCCCC3)c3nn(C)c(=O)n3c2c1		pIC50 (Plasmodium falciparum): 5.941; IC50 (Plasmodium falciparum): 1.04 µM; IC50 (ClpP1P2): > 100 µM
CC(C)OCc1ccc(CNc2cncc(-n3cccn3)n2)cc1		IC50 (ClpP1P2): > 100 µM; IC50 [1]: > 50.1 µM; IC50 [2]: 17 µM
Cc1cc2nc(C(C)C)cc(N(C)CC3CCN(C(C)C)C3)n2n1 (configuration not stated)		IC50 (ClpP1P2): > 100 µM; IC50 [1]: > 50.1 µM; IC50 [2]: > 50.1 µM
O[C@@H]1CN(c2cnc3ccccc3n2)CC[C@H]1c1ccc2c(c1)OCO2		IC50 (ClpP1P2): > 100 µM; IC50 [1]: 3.18 µM; IC50 [2]: 2.21 µM
CCCOc1ccc(CNc2cncc(-n3cccn3)n2)cc1		IC50 (ClpP1P2): > 100 µM
COc1ccc(-c2cnc(N(C)C)nc2C2CNCCO2)cc1 (configuration not stated)		IC50 (ClpP1P2): > 100 µM
COc1c(C2CCCN2Cc2noc(C)n2)c(C)nn1C (configuration not stated)		IC50 (ClpP1P2): > 100 µM
c1cc(CN2CCC(c3ccnc4nccn34)C2)ccn1 (configuration not stated)		IC50 (ClpP1P2): > 100 µM
CS(=O)(=O)CCNC(=O)c1ccc(-c2ccco2)[nH]c1=O		IC50 (ClpP1P2): > 100 µM
Cc1cnn(CC2CCCN2C(=O)CCc2ccncc2)c1 (configuration not stated)		IC50 (ClpP1P2): > 100 µM
CC(C)CNC(=O)c1cn(-c2ccccn2)c(=O)c2ccccc12		IC50 (ClpP1P2): > 100 µM
COc1ccc2c(c1)Cc1c-2nc(N)c(C#N)c1C1CCOC1 (configuration not stated)		IC50 (ClpP1P2): > 100 µM
CCCn1nc2c(cc1=O)CN(CC(=O)N(C)c1nccs1)CC2		IC50 (ClpP1P2): > 100 µM
